# From ChEMBL document CHEMBL1201862, “PubChem BioAssay data set” (2004)
# Calls of active or inactive are those of the source.
# How the values were obtained:
# [1] = target: T1, Short transient receptor potential channel 4 (Mus musculus, UniProt Q9QUQ5); assay: mouse TRPC4 channel inhibitors, dose response, cell-based, HEK293 TRPC4/mu-opioid, Fluo-4 calcium (AID 434942); format: functional;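 also: potency of inhibitors blocking the TRPC4 calcium response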
# T1 sequence (Q9QUQ5 whole entry): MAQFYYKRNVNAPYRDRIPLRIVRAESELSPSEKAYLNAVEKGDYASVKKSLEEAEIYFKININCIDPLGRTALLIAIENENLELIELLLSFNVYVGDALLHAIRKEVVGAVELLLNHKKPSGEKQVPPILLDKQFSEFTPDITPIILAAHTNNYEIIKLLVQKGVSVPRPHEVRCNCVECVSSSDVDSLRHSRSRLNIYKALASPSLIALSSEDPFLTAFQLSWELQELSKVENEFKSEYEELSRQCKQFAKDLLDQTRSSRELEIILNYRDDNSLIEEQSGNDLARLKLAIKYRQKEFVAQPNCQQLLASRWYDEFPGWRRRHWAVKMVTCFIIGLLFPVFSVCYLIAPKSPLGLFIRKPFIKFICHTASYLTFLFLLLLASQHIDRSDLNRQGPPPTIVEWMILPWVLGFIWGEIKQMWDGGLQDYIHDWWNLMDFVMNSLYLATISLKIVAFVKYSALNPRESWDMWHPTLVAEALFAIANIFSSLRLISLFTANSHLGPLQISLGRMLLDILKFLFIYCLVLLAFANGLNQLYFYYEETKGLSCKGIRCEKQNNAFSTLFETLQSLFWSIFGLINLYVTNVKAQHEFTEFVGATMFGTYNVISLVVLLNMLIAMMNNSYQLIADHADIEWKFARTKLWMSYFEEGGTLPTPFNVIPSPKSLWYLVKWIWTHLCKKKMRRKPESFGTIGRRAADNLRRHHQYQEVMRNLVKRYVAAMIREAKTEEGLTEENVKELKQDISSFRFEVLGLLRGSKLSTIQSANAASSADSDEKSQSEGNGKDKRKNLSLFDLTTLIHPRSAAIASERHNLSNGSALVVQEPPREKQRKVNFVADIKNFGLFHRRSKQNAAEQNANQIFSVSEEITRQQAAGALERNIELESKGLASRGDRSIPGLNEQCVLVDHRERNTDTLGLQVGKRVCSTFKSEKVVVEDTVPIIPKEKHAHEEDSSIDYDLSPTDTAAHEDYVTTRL
# [2] = cytotoxicity toward NIH3T3 fibroblasts, dose response, counter-screen, cell-based, ATP luminescence, mouse fibroblasts (AID 2010); format: functional;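 also: cells exposed to compound for about 90 hours before reading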
# [3] = cells
# [4] = inhibitors of intracellular T. cruzi replication, confirmation, NIH3T3 host cells, beta-gal luminescence (AID 2044); format: functional, cell-based;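 also: intracellular parasites grown in NIH/3T3 mouse fibroblasts as host cells; luminescent beta-galactosidase reporter signal from transgenic T. cruzi replicating inside host cells; inhibitors lower the luminescence signal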
# [5] = system: H9c2; assay: cells; format: functional, cell-based; conditions: Rattus norvegicus, H9c2, Myocardium;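 also: confirmatory concentration-response retest of ultra-high-throughput screening hits for modulation of myocardial damage; cell death induced by hydrogen peroxide oxidative stress; compound pretreatment for 60 min then peroxide exposure for 2 h; potency is for protecting the cells against peroxide damage rather than for killing them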
# [6] = growth suppression of PTEN-null colon cells, dose response, cell-based, HCT116 PTEN knockout (AID 1047); format: functional;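 also: HCT116 colon tumor cells with PTEN knocked out; cells exposed to compound for 60 hours before readout; potency for loss of cell viability measured by luminescence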
# [7] = cytotoxicity in HPDE-C7 cells, cell-based, fluorescence, HTS (AID 430); format: functional; conditions: Homo sapiens
# [8] = growth suppression of beta-catenin-knockout colon cells, dose response, cell-based, HCT116, human colon tumor (AID 1045); format: functional;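 also: HCT116 colon tumor cells with beta catenin knocked out; cells exposed to compound for 60 hours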
# [9] = cytotoxicity in KRAS-transformed pancreatic duct cells, primary screen, cell-based, fluorescence, HTS (AID 431); format: functional; conditions: Homo sapiens;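 also: cell line used: HPDE-C7K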
# [10] = target: Peroxisome proliferator-activated receptor gamma/Nuclear receptor coactivator 1 (Homo sapiens, UniProt P37231); assay: (§1) TR-FRET dose response biochemical High Throughput Screening assay for agonists of the steroid receptor coactivator 1 (SRC-1) recruitment by the peroxisome proliferator-activated receptor gamma (PPAR gamma): non-selective agonists. [Related pubchem assays (depositor defined):AID1300, AID1808, AID504735, AID631]; format: protein assay
# [11] = target: Peroxisome proliferator-activated receptor gamma/Nuclear receptor coactivator 3 (Homo sapiens, UniProt P37231); assay: as §1, with “3 (SRC-3)” for “1 (SRC-1)”, “assays: 1301 (Confirmation screen.), 1048 (Primary screen.)]” for “assays (depositor defined):AID1300, AID1808, AID504735, AID631]”; format: functional
# [12] = target: Peroxisome proliferator-activated receptor gamma/Nuclear receptor coactivator 2 (Homo sapiens, UniProt P37231); assay: TR-FRET dose response biochemical High Throughput Screening assay for agonists of the steroid receptor coactivator 2 (SRC-2) recruitment by the peroxisome proliferator-activated receptor gamma (PPAR gamma): non-selective agonists. [Related pubchem assays: 1297, 1032 ]; format: functional
# [13] = target: Glyceraldehyde-3-phosphate dehydrogenase (Homo sapiens, UniProt P04406)
# [14] = target: FAD-linked sulfhydryl oxidase ALR (Homo sapiens, UniProt P55789); assay: inhibitors of human ALR sulfhydryl oxidase, dose response, biochemical, H2O2 detection, luminescence, cherry-pick (AID 493248)
# [15] = target: Induced myeloid leukemia cell differentiation protein Mcl-1 (Homo sapiens, UniProt Q07820); format: functional
# [16] = HEp-2 cell cytotoxicity, dose response, cytotoxicity control for RSV inhibitor project, HTS (AID 2410); format: functional; conditions: human respiratory syncytial virus
# [17] = cells; remark: listed apart in the source
# [18] = target: T2, Zinc finger protein mex-5 (Caenorhabditis elegans, UniProt Q9XUB2); assay: MEX-5/TCR-2 RNA interaction inhibitors, dose response, biochemical, C. elegans, fluorescence polarization (AID 1960)
# T2 sequence (Q9XUB2 whole entry): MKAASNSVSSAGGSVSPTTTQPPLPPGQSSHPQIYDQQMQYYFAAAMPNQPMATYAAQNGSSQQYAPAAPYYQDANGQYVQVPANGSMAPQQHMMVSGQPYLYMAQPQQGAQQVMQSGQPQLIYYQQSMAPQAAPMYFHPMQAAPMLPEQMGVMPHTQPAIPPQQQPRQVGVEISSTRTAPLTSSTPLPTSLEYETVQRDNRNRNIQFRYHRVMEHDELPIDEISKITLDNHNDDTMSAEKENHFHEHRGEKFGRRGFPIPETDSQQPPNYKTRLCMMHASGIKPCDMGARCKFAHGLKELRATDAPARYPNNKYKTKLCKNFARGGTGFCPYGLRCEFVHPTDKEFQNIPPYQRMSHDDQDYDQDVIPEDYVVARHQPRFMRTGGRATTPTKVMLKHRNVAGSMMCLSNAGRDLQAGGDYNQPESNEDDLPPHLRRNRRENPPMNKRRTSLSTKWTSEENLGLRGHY
# [19] = target: Genome polyprotein (dengue virus type 2, UniProt P29990); assay: Dengue-2 NS5 methyltransferase inhibitors, primary screen, biochemical, confirmation dose response (AID 588689); format: functional
# [20] = THP-1 cell cytotoxicity, dose response, cytotoxicity control for non-replicating M. tuberculosis project (AID 489025); format: functional
# [21] = target: Large T antigen (Simian virus 40, UniProt P03070); format: functional, Betapolyomavirus macacae;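 also: Confirmatory-stage PubChem screen for compounds that inhibit SV40 T antigen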
# [22] = target: T3, RNA-binding protein pos-1 (Caenorhabditis elegans, UniProt G5EF15); assay: inhibitors of POS-1/mex-3 RNA binding, dose response, biochemical, fluorescence polarization (AID 1964);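 also: purified POS-1 fused to maltose binding protein made in E. coli; potency of compounds blocking POS-1 binding to fluorescent RNA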
# T3 sequence (G5EF15 whole entry): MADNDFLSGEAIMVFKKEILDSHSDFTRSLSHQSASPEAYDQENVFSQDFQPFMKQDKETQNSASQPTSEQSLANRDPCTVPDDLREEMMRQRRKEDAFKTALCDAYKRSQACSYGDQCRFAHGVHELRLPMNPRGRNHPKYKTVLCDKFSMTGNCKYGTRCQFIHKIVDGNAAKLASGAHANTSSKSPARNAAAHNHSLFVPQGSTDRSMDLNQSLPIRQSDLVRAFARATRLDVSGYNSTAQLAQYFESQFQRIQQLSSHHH
# [23] = cells; format: functional
# [24] = target: T4, Estrogen receptor beta (Homo sapiens, UniProt Q92731);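 also: recombinant ER-beta bound to coactivator SRC1 peptide in presence of estradiol agonist; inhibitors block coactivator peptide binding and lower the FRET signal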
# [25] = target: T5, Polyadenylate-binding protein 1 (Homo sapiens, UniProt P11940); assay: PABP1 MLLE–PAM2 binding inhibitor potency, dose response, biochemical, fluorescence polarization, FITC-PAM2 peptide (AID 602259); format: functional; conditions: read-out: IC50_Mean
# [26] = target: T5, Polyadenylate-binding protein 1; assay: PABP1 MLLE–PAM2 interaction inhibitors, dose response, miRNA deadenylation inhibitor project, biochemical, fluorescence polarization, Cy5-PAM2 peptide, secondary (AID 602260); format: functional; conditions: read-out: IC50_Mean
# [27] = target: T4, Estrogen receptor beta; assay: ERβ–SRC-3 coactivator interaction inhibitors, confirmation, orthogonal assay, biochemical, ELISA, streptavidin-HRP readout (AID 1060)
# [28] = target: T6, Estrogen receptor (Homo sapiens, UniProt P03372);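 also: potency for inhibiting coactivator peptide recruitment to the receptor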
# T6 sequence (P03372 whole entry): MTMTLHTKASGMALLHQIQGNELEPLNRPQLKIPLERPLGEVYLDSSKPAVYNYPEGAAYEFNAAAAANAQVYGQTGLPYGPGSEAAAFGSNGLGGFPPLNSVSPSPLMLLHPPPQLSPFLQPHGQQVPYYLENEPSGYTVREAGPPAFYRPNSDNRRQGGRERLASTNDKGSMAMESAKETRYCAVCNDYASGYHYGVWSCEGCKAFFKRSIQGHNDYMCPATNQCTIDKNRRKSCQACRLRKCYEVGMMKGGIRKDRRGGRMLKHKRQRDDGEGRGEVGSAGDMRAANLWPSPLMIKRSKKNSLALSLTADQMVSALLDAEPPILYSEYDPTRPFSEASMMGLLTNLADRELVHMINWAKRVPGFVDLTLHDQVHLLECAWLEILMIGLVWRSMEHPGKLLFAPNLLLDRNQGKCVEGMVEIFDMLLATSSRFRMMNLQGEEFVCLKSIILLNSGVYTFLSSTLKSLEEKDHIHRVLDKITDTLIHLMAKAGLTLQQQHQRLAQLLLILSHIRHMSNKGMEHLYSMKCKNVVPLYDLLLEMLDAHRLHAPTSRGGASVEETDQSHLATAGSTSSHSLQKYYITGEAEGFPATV
# T4 sequence (Q92731 whole entry): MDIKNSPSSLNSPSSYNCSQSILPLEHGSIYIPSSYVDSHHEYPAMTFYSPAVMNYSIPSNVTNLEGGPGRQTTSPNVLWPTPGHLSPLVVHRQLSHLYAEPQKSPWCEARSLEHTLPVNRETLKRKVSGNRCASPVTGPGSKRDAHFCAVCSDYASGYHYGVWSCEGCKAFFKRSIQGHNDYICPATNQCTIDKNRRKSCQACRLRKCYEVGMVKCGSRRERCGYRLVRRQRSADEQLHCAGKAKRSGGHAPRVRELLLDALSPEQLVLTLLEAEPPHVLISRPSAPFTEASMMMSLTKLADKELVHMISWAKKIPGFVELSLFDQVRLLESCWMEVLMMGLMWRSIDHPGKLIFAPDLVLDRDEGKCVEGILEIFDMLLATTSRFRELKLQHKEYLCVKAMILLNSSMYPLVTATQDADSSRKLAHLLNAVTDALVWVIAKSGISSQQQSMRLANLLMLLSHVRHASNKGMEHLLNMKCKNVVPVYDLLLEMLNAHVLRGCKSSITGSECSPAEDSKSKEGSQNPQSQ
# Chain of Glyceraldehyde-3-phosphate dehydrogenase (P04406 whole entry): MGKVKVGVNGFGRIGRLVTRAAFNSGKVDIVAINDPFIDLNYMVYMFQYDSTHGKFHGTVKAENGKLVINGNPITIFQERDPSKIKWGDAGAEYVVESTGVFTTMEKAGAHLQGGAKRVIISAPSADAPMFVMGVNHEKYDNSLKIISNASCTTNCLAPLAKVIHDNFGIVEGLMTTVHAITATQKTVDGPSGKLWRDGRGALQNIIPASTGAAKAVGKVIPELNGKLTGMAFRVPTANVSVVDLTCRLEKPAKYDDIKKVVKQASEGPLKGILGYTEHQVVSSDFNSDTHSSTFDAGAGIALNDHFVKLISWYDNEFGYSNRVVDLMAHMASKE
# Chain of Peroxisome proliferator-activated receptor gamma/Nuclear receptor coactivator 2 (P37231 whole entry): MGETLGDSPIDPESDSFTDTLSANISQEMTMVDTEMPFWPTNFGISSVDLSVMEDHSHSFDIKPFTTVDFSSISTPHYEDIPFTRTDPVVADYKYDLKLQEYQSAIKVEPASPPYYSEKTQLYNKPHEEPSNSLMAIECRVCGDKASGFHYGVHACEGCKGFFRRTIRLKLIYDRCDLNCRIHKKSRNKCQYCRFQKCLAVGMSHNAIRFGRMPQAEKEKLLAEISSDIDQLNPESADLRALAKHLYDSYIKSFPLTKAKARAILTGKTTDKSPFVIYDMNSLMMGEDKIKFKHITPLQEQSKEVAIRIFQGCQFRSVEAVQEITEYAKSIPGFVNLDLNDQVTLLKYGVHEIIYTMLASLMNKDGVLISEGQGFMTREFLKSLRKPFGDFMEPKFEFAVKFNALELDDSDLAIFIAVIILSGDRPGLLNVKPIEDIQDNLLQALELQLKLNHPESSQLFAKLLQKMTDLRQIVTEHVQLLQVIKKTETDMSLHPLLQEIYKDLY
# Chain of Peroxisome proliferator-activated receptor gamma/Nuclear receptor coactivator 2 (Q15596 whole entry, further chain): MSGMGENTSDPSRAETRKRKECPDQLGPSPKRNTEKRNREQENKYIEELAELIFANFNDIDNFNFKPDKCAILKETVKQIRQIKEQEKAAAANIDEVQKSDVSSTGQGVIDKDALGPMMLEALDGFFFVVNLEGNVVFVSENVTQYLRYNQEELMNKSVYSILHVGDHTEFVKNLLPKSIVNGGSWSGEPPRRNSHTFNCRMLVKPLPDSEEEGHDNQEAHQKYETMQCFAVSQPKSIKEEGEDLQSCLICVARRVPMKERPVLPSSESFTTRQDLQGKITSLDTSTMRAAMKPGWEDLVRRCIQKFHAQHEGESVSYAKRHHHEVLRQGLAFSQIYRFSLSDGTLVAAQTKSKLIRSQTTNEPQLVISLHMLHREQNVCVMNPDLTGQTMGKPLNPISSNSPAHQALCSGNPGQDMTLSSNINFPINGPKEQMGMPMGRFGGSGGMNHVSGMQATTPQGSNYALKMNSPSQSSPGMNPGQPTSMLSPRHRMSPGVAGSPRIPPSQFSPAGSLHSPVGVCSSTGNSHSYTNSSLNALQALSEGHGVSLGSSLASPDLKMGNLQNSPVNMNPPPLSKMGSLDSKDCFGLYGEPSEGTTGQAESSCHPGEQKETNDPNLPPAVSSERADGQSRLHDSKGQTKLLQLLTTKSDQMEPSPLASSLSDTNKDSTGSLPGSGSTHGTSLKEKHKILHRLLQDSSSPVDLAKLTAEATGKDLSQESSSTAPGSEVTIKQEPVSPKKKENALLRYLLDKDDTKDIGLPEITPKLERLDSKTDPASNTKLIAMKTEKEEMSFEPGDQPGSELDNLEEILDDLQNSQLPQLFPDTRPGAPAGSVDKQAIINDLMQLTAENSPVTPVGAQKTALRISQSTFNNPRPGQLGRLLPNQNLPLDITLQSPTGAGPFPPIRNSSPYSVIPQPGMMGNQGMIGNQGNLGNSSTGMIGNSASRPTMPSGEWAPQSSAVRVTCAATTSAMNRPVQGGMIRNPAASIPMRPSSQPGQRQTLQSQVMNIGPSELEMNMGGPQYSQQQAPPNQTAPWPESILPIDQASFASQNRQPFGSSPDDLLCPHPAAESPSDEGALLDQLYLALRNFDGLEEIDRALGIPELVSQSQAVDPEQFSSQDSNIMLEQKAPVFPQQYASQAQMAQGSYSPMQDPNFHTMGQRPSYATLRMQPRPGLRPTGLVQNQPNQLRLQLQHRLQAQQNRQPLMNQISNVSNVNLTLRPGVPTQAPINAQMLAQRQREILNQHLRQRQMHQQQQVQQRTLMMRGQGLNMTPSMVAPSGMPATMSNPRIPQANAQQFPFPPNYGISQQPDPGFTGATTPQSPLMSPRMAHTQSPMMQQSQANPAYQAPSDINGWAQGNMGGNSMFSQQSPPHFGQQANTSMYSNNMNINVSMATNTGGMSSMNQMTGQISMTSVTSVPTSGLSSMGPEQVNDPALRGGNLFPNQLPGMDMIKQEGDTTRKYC
# Chain of Peroxisome proliferator-activated receptor gamma/Nuclear receptor coactivator 3 (P37231 whole entry): as the sequence (P37231 whole entry) above
# Chain of Peroxisome proliferator-activated receptor gamma/Nuclear receptor coactivator 3 (Q9Y6Q9 whole entry, further chain): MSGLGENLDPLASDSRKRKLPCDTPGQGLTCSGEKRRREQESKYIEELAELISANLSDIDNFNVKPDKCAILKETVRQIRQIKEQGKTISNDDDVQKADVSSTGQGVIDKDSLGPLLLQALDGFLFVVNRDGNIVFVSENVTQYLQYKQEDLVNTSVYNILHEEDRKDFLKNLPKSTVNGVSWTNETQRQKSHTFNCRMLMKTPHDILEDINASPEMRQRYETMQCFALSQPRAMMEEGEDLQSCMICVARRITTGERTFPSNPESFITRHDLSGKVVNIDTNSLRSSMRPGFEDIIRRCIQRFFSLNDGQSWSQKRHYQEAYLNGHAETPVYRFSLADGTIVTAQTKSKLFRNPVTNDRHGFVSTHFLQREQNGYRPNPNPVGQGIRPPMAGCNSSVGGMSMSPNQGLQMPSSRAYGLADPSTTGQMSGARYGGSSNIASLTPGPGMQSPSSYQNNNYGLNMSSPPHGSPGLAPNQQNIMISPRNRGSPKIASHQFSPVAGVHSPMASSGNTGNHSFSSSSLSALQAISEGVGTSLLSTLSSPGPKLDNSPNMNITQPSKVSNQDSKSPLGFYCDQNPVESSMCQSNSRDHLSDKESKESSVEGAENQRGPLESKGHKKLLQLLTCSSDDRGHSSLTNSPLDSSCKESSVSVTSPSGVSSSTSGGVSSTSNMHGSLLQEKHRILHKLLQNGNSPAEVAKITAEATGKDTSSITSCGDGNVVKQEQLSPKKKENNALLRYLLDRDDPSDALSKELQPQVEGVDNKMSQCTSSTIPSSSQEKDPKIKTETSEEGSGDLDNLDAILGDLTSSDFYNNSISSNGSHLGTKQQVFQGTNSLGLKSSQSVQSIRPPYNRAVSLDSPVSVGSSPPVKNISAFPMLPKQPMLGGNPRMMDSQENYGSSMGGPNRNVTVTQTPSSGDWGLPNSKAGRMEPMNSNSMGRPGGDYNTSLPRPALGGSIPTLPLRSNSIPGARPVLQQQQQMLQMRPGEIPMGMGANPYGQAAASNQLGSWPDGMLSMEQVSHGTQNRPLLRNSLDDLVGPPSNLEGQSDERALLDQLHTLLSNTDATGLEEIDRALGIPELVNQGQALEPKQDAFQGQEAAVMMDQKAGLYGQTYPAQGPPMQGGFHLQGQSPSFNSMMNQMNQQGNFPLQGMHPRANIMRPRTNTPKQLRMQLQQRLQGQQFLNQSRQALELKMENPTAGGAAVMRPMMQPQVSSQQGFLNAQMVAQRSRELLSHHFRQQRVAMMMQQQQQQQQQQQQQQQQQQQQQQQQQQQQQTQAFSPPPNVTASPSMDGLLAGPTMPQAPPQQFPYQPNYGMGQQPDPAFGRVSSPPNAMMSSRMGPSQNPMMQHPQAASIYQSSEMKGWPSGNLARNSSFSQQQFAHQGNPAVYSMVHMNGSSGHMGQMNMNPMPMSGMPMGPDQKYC
# Chain of FAD-linked sulfhydryl oxidase ALR (P55789 whole entry): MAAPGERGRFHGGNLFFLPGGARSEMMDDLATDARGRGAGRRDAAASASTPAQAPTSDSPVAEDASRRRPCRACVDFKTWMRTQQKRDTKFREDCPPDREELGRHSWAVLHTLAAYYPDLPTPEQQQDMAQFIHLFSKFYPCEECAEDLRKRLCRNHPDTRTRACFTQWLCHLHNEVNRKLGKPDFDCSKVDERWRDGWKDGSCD
smiles,measurement,setting,value
CN(CC1CCCN(CCc2cccc(C(F)(F)F)c2)C1)C(=O)c1cc2ccccc2o1 (configuration not stated),EC50,[1],0.668 µM (active)
same,EC50,[2],8.57 µM (active)
same,EC50,[3],0.082 µM (active)
same,EC50,[4],< 0.1 µM (active)
C=CCn1cnc2c(c1=O)c1nc3ccccc3nc1n2/N=C/c1cc(OC)c(OC)c(OC)c1,IC50,[5],> 79 µM (inactive)
same,EC50,[6],4.4 µM (active)
same,EC50,[7],11.2 µM (active)
same,EC50,[8],4.67 µM (active)
same,EC50,[9],5.68 µM (active)
CCC(C(=O)Nc1nnc(-c2ccco2)s1)c1ccccc1 (configuration not stated),EC50,[10],> 79.4 µM (inactive)
same,EC50,[11],> 79.4 µM (not active)
same,EC50,[12],43.6 µM (not active)
Cc1ccc(C2=NC(=O)/C(=C/C=C/c3ccc([N+](=O)[O-])o3)S2)cc1,IC50,[13],> 100 µM (not active)
Cc1ccc(-n2c(S)nnc2-c2ccccc2)cc1,EC50,[10],33.6 µM (inactive)
same,EC50,[11],> 79.4 µM (not active)
same,EC50,[12],18.4 µM (not active)
CN(C)C1=C(Cl)C(=O)N(c2cccc(C(F)(F)F)c2)C1=O,IC50,[13],> 50 µM (inconclusive)
O=C(CN1CCN(c2ccc(O)cc2)CC1)Nc1cc([N+](=O)[O-])ccc1Cl,AC50,[14],1.24 µM (active)
same,IC50,[15],5.07 µM (active)
O=[N+]([O-])c1cc(C(F)(F)F)ccc1N1CCC(O)CC1,CC50,[16],47.2 µM (active)
same,IC50,[17],19.8 µM (active)
O=C(CCN1CCc2ccccc2C1)c1ccc2c(c1)OCCO2,EC50,[7],9.07 µM (active)
same,EC50,[9],11.5 µM (active)
COc1cccc(N2C(=O)NC(=O)/C(=C/c3ccc([N+](=O)[O-])s3)C2=O)c1,EC50,[18],27.2 µM (active)
same,CC50,[16],13.8 µM (active)
same,IC50,[19],38 µM (active)
same,CC50,[20],37.1 µM (active)
same,IC50,[21],47.3 µM (active)
same,EC50,[22],34.4 µM (active)
same,IC50,[23],27.6 µM (active)
Nc1nc(-c2ccco2)c(-c2ccco2)s1,IC50,[24],> 50 µM (not active)
same,IC50,[25],> 66 µM (inactive)
same,IC50,[26],> 66 µM (inactive)
same,IC50,[27],101 µM (not active)
CCN(CC)c1nc2c3c(nc4c(c3c1C#N)CC(=O)N4c1ccc(Cl)cc1)NC(C)=N2,IC50,[15],2.18 µM (active)
CCOC(=O)Cc1cc(O)n2nc(-c3ccc(C)cc3)cc2n1,IC50,[28],13.9 µM (active)
same,IC50,[24],6.5 µM (active)
same,IC50,[27],46.7 µM (not active)
Cn1c(=O)cc(SCC(=O)NCc2cccnc2)c2ccccc21,EC50,[10],> 79.4 µM (inactive)
same,EC50,[11],> 79.4 µM (not active)
same,EC50,[12],> 79.4 µM (not active)
O=C(CSc1nnc(SCC(=O)c2ccco2)s1)c1ccco1,IC50,[28],21.2 µM (active)
same,IC50,[24],6.51 µM (active)
same,IC50,[27],> 109 µM (not active)
Cc1ccc2nc(N(CCCN(C)C)C(=O)c3cc4ccccc4oc3=O)sc2c1,EC50,[2],> 60 µM (not active)
same,EC50,[3],0.116 µM (active)
same,EC50,[4],< 0.1 µM (active)
CC(C)(C)CC(=O)NC(=S)NCCc1ccccc1,CC50,[16],39.4 µM (active)
same,IC50,[17],18.4 µM (active)
COc1cc(S(=O)(=O)Nc2cccnc2)c(OC)cc1Cl,IC50,[13],> 100 µM (not active)
COC(=O)C1=C(C)N(Cc2ccccc2)C(=O)N[C@H]1c1cccc(C(F)(F)F)c1,CC50,[16],32.9 µM (active)
same,IC50,[17],8.17 µM (active)
